Laboratory results as given in patent publication US20060069132A1, “Azolecarboxamide herbicides” (priority 2004, published 2006).

How the values were obtained:
[1] = system: large crabgrass; experiment: Test B pre-/postemergence herbicide test; assay type: in vivo, Digitaria sanguinalis; conditions: for Plant response rating (0 to 100 scale), Crabgrass, Large: 0 is no effect, preemergence
Method in brief: (§1)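 Greenhouse pot assay with simultaneous preemergence (treated seed) and postemergence (2–18 cm seedlings) applications of surfactant-containing, non-phytotoxic solvent formulations. Response scored visually 13–15 days later on a 0–100 scale, 100 meaning complete control.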

[2] = system: wild oat; experiment: Test B postemergence herbicide test; assay type: in vivo, Avena fatua
Method in brief: (§2)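 Greenhouse test; postemergence application to plants at 1–4 leaves (2–18 cm); paddy species at 2 leaves; evaluated visually vs controls at 13–15 days; scale 0–100 (100 = complete control).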

[3] = system: blackgrass; experiment: Test B postemergence herbicide test; assay type: in vivo, Alopecurus myosuroides
Method in brief: (§3)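 Paddy species grown to the 2-leaf stage under flooding; blackgrass sprayed postemergence at 2–18 cm (1- to 4-leaf stage). Plants kept in a greenhouse for 13 to 15 days, then visually rated against controls on 0 (no effect) to 100 (complete control).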

[4] = system: wheat; experiment: Test B postemergence herbicide test; assay type: in vivo, Triticum aestivum; design: key to Wheat plant response rating: 0 = no effect, 100 = complete control
Method in brief: as §2

[5] = system: corn; experiment: Test B pre-/postemergence herbicide test; assay type: in vivo, Zea mays; conditions: for Plant response rating (0 to 100 scale), Corn: 0 is no effect, preemergence
Method in brief: as §1

[6] = system: lambsquarters; experiment: Test B pre-/postemergence herbicide test; assay type: in vivo, Chenopodium album; conditions: for Plant response rating (0 to 100 scale), Lambsquarters: 0 is no effect, 100 is complete control, preemergence
Method in brief: as §1

[7] = system: Surinam grass; experiment: Test B pre-/postemergence herbicide test; assay type: in vivo, Urochloa decumbens; conditions: for Plant response rating (0 to 100 scale), Surinam Grass: 0 is no effect, 100 is complete control, preemergence
Method in brief: as §1

[8] = system: barnyardgrass; experiment: Test B flooded paddy test; assay type: in vivo, Echinochloa crus-galli; conditions: scale 0 to 100 (0 no effect, 100 complete control)
Method in brief: as §3

[9] = system: morningglory; experiment: Test B pre-/postemergence herbicide test; assay type: in vivo, Ipomoea coccinea; conditions: for Plant response rating (0 to 100 scale), Morningglory: 0 is no effect, 100 is complete control, preemergence
Method in brief: (§4)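 Test chemicals in a non-phytotoxic solvent mixture with surfactant were applied preemergence to seeded species and postemergence to plants 2-18 cm tall (1- to 4-leaf stage); rice and barnyardgrass were also tested in a flooded paddy at the 2-leaf stage. Visual rating versus controls after 13-15 days in greenhouse, scale 0 (no effect) to 100 (complete control).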

[10] = system: small flower umbrella sedge; experiment: Test B flooded paddy test; assay type: in vivo, Cyperus difformis; conditions: scale 0 to 100 (0 no effect, 100 complete control)
Method in brief: as §3

[11] = system: barnyardgrass; experiment: Test B pre-/postemergence herbicide test; assay type: in vivo, Echinochloa crus-galli; conditions: for Plant response rating (0 to 100 scale), Barnyardgrass: 0 is no effect, preemergence
Method in brief: as §4

[12] = system: cocklebur; experiment: Test B pre-/postemergence herbicide test; assay type: in vivo, Xanthium strumarium; conditions: for Plant response rating (0 to 100 scale), Cocklebur: 0 is no effect, preemergence
Method in brief: as §4

[13] = system: pigweed; experiment: Test B pre-/postemergence herbicide test; assay type: in vivo, Amaranthus retroflexus; conditions: for Plant response rating (0 to 100 scale), Pigweed: 0 is no effect, 100 is complete control, preemergence
Method in brief: as §1

[14] = system: giant foxtail; experiment: Test B pre-/postemergence herbicide test; assay type: in vivo, Setaria faberi; conditions: for Plant response rating (0 to 100 scale), Foxtail, Giant: 0 is no effect, preemergence
Method in brief: as §1

[15] = system: velvetleaf; experiment: Test B pre-/postemergence herbicide test; assay type: in vivo, Abutilon theophrasti; conditions: for Plant response rating (0 to 100 scale), Velvetleaf: 0 is no effect, 100 is complete control, preemergence
Method in brief: as §1

[16] = system: rice; experiment: Test B flooded paddy test; assay type: in vivo, Oryza sativa; conditions: scale 0 to 100 (0 no effect, 100 complete control)
Method in brief: as §2

[17] = system: ducksalad; experiment: Test B flooded paddy test; assay type: in vivo, Heteranthera limosa; conditions: scale 0 to 100 (0 no effect, 100 complete control)
Method in brief: as §3

[18] = 125 g ai/ha, 100 is complete control
[19] = 125 g ai/ha, visual rating, scale 0 (no effect) to 100 (complete control), postemergence
[20] = Postemergence, 500 g ai/ha, scale 0 (no effect) to 100 (complete control)
[21] = 500 g ai/ha, scale 0 to 100, 0 no effect, 100 complete control, preemergence
[22] = postemergence, 500 g ai/ha, scale 0 to 100, 0 is no effect, 100 is complete control
[23] = postemergence, 125 g ai/ha, scale 0 to 100

SMILES: CCNC(=O)c1ccc(F)c(NC(=O)c2nn(C(C)C)nc2C)c1 [Compound 401]
- Plant response rating (0 to 100 scale), Crabgrass, Large [1, 18]: 0
- Crabgrass, Large plant response rating [1, 19]: 0
- Crabgrass, Large plant response rating [1, 20]: 0
- Oat, Wild plant response rating [2, 19]: 0
- Oat, Wild plant response rating [2, 20]: 0
- Blackgrass plant response rating [3, 19]: 0
- Blackgrass plant response rating [3, 20]: 0
- Wheat plant response rating [4, 19]: 0
- Wheat plant response rating [4, 21]: 0
- Wheat plant response rating [4, 20]: 0
- Plant response rating (0 to 100 scale), Corn [5, 18]: 0
- Corn plant response rating [5, 19]: 0
- Corn plant response rating [5, 20]: 0
- Plant response rating (0 to 100 scale), Lambsquarters ([6]; 125 g ai/ha): 0
- Lambsquarters plant response rating [6, 19]: 0
- Lambsquarters plant response rating [6, 20]: 0
- Plant response rating (0 to 100 scale), Surinam Grass ([7]; 125 g ai/ha): 0
- Surinam Grass plant response rating [7, 19]: 0
- Surinam Grass plant response rating [7, 20]: 0
- Barnyardgrass plant response rating ([8]; 1000 g ai/ha): 0
- Plant response rating (0 to 100 scale), Morningglory ([9]; 125 g ai/ha): 0
- Morningglory plant response rating [9, 19]: 0
- Morningglory plant response rating [9, 20]: 0
- Sedge, Umbrella plant response rating ([10]; 1000 g ai/ha): 0
- Plant response rating (0 to 100 scale), Barnyardgrass [11, 18]: 0
- Barnyardgrass plant response rating [11, 19]: 0
- Barnyardgrass plant response rating [11, 20]: 0
- Plant response rating (0 to 100 scale), Cocklebur [12, 18]: 0
- Cocklebur plant response rating [12, 19]: 0
- Cocklebur plant response rating [12, 20]: 0
- Plant response rating (0 to 100 scale), Pigweed ([13]; 125 g ai/ha): 0
- Pigweed plant response rating [13, 19]: 0
- Pigweed plant response rating [13, 20]: 0
- Plant response rating (0 to 100 scale), Foxtail, Giant [14, 18]: 0
- Foxtail, Giant plant response rating [14, 19]: 0
- Foxtail, Giant plant response rating [14, 20]: 0
- Plant response rating (0 to 100 scale), Velvetleaf ([15]; 125 g ai/ha): 0
- Velvetleaf plant response rating [15, 19]: 0
- Velvetleaf plant response rating [15, 20]: 0
- Rice plant response rating ([16]; 1000 g ai/ha): 20
- Ducksalad plant response rating ([17]; 1000 g ai/ha): 0

SMILES: CCc1nn(C(C)(C)C)nc1C(=O)Nc1cc(C(=O)N2CC=CC2)ccc1F [Compound 363]
- Plant response rating (0 to 100 scale), Crabgrass, Large [1, 18]: 20
- Crabgrass, Large plant response rating [1, 19]: 10
- Crabgrass, Large plant response rating [1, 22]: 10
- Oat, Wild plant response rating [2, 19]: 20
- Blackgrass plant response rating [3, 19]: 20
- Blackgrass plant response rating [3, 22]: 70
- Wheat plant response rating [4, 19]: 10
- Wheat plant response rating [4, 21]: 30
- Plant response rating (0 to 100 scale), Corn [5, 18]: 0
- Corn plant response rating [5, 19]: 0
- Corn plant response rating [5, 22]: 0
- Plant response rating (0 to 100 scale), Lambsquarters ([6]; 125 g ai/ha): 0
- Lambsquarters plant response rating [6, 19]: 30
- Plant response rating (0 to 100 scale), Surinam Grass ([7]; 125 g ai/ha): 0
- Surinam Grass plant response rating [7, 19]: 10
- Barnyardgrass plant response rating ([8]; 1000 g ai/ha): 60
- Plant response rating (0 to 100 scale), Morningglory ([9]; 125 g ai/ha): 0
- Morningglory plant response rating [9, 19]: 50
- Sedge, Umbrella plant response rating ([10]; 1000 g ai/ha): 80
- Plant response rating (0 to 100 scale), Barnyardgrass [11, 18]: 0
- Barnyardgrass plant response rating [11, 19]: 0
- Barnyardgrass plant response rating [11, 22]: 0
- Plant response rating (0 to 100 scale), Cocklebur [12, 18]: 0
- Cocklebur plant response rating [12, 19]: 20
- Cocklebur plant response rating [12, 22]: 30
- Plant response rating (0 to 100 scale), Pigweed ([13]; 125 g ai/ha): 0
- Pigweed plant response rating [13, 19]: 20
- Plant response rating (0 to 100 scale), Foxtail, Giant [14, 18]: 20
- Foxtail, Giant plant response rating [14, 19]: 10
- Foxtail, Giant plant response rating [14, 22]: 10
- Plant response rating (0 to 100 scale), Velvetleaf ([15]; 125 g ai/ha): 0
- Velvetleaf plant response rating [15, 19]: 10
- Rice plant response rating ([16]; 1000 g ai/ha): 60
- Ducksalad plant response rating ([17]; 1000 g ai/ha): 90

SMILES: Cc1nn(C(C)(C)C)nc1C(=O)Nc1cccc(C(=O)N2CC=CC2)n1 [Compound 441]
- Crabgrass, Large plant response rating [1, 20]: 0
- Crabgrass, Large plant response rating [1, 23]: 0
- Oat, Wild plant response rating [2, 20]: 40
- Oat, Wild plant response rating [2, 23]: 30
- Blackgrass plant response rating [3, 20]: 40
- Blackgrass plant response rating [3, 23]: 20
- Wheat plant response rating [4, 21]: 30
- Wheat plant response rating [4, 20]: 30
- Wheat plant response rating [4, 23]: 20
- Corn plant response rating [5, 20]: 30
- Corn plant response rating [5, 23]: 0
- Lambsquarters plant response rating [6, 20]: 20
- Lambsquarters plant response rating [6, 23]: 20
- Surinam Grass plant response rating [7, 20]: 0
- Surinam Grass plant response rating [7, 23]: 0
- Barnyardgrass plant response rating ([8]; 125 g ai/ha): 0
- Morningglory plant response rating [9, 20]: 0
- Morningglory plant response rating [9, 23]: 0
- Sedge, Umbrella plant response rating ([10]; 125 g ai/ha): 0
- Barnyardgrass plant response rating ([11]; Postemergence, 125 g ai/ha, scale 0 (no effect) to 100 (complete control)): 0
- Barnyardgrass plant response rating [11, 20]: 0
- Cocklebur plant response rating [12, 20]: 10
- Cocklebur plant response rating [12, 23]: 10
- Pigweed plant response rating [13, 20]: 20
- Pigweed plant response rating [13, 23]: 20
- Foxtail, Giant plant response rating [14, 20]: 0
- Foxtail, Giant plant response rating [14, 23]: 0
- Velvetleaf plant response rating [15, 20]: 0
- Velvetleaf plant response rating [15, 23]: 0
- Rice plant response rating ([16]; 125 g ai/ha): 0
- Ducksalad plant response rating ([17]; 125 g ai/ha): 0

SMILES: CCc1nn(C(C)(C)CC)nc1C(=O)Nc1cccc(OC(F)(F)F)c1 [Compound 374]
- Plant response rating (0 to 100 scale), Crabgrass, Large [1, 18]: 0
- Crabgrass, Large plant response rating [1, 19]: 20
- Crabgrass, Large plant response rating [1, 22]: 20
- Oat, Wild plant response rating [2, 19]: 20
- Oat, Wild plant response rating [2, 20]: 40
- Blackgrass plant response rating [3, 19]: 10
- Blackgrass plant response rating [3, 22]: 30
- Wheat plant response rating [4, 19]: 0
- Wheat plant response rating [4, 21]: 0
- Wheat plant response rating [4, 20]: 20
- Plant response rating (0 to 100 scale), Corn [5, 18]: 0
- Corn plant response rating [5, 19]: 10
- Corn plant response rating [5, 22]: 20
- Lambsquarters plant response rating [6, 19]: 10
- Lambsquarters plant response rating [6, 20]: 70
- Plant response rating (0 to 100 scale), Surinam Grass ([7]; 125 g ai/ha): 10
- Surinam Grass plant response rating [7, 19]: 10
- Surinam Grass plant response rating [7, 20]: 20
- Barnyardgrass plant response rating ([8]; 1000 g ai/ha): 40
- Plant response rating (0 to 100 scale), Morningglory ([9]; 125 g ai/ha): 0
- Morningglory plant response rating [9, 19]: 20
- Morningglory plant response rating [9, 20]: 20
- Sedge, Umbrella plant response rating ([10]; 1000 g ai/ha): 0
- Plant response rating (0 to 100 scale), Barnyardgrass [11, 18]: 0
- Barnyardgrass plant response rating [11, 19]: 10
- Barnyardgrass plant response rating [11, 22]: 20
- Plant response rating (0 to 100 scale), Cocklebur [12, 18]: 0
- Cocklebur plant response rating [12, 19]: 0
- Cocklebur plant response rating [12, 22]: 30
- Plant response rating (0 to 100 scale), Pigweed ([13]; 125 g ai/ha): 30
- Pigweed plant response rating [13, 19]: 30
- Pigweed plant response rating [13, 20]: 70
- Plant response rating (0 to 100 scale), Foxtail, Giant [14, 18]: 10
- Foxtail, Giant plant response rating [14, 19]: 20
- Foxtail, Giant plant response rating [14, 22]: 20
- Plant response rating (0 to 100 scale), Velvetleaf ([15]; 125 g ai/ha): 0
- Velvetleaf plant response rating [15, 19]: 10
- Velvetleaf plant response rating [15, 20]: 20
- Rice plant response rating ([16]; 1000 g ai/ha): 20
- Ducksalad plant response rating ([17]; 1000 g ai/ha): 50
